Laboratory results as given in ChEMBL document CHEMBL6083254, “Optimization of B-Ring-Functionalized Antimalarial Tambjamines and Prodiginines” (J Med Chem, 2024).
Calls of active or inactive are those of the source. No cut-off for these calls is given here.

Tests used:
[1] = %AUCextra in ICR-CD1 mouse liver at 40 mg/kg, po; type: ADME, organism-based; conditions: in vivo
[2] = AUC (0 to infinity) in ICR-CD1 mouse plasma at 40 mg/kg, po; type: ADME, organism-based; conditions: in vivo
Plasmodium falciparum [3] = assay: microbe, parasite or virus in culture; conditions: D6, 72 h
Plasmodium yoelii [4] = assay: Antiplasmodial activity against asexual erythrocytic stage of Plasmodium yoelii infected in female CFI mouse model assessed as reduction in parasitemia at 10 mg/kg, po administered once daily for 4 days and measured on day 5 by Giemsa staining based microscopic analysis relative to control; type: functional; parameters: scale not given: the % may be the effect or the level left
[5] = AUClast in ICR-CD1 mouse liver at 40 mg/kg, po; type: ADME, organism-based
[6] = AUClast in ICR-CD1 mouse plasma at 40 mg/kg, po; type: ADME, organism-based
Plasmodium falciparum [7] = assay: microbe, parasite or virus in culture; conditions: Tm90-C2B, 72 h
[8] = molecular target: T1, Voltage-gated inwardly rectifying potassium channel KCNH2 (Homo sapiens, UniProt Q12809); assay: Inhibition of hERG expressed in CHO-K1 cells at 0.313 uM relative to control; type: toxicity, cell-based; conditions: cho-k1, 0.313 µM
Plasmodium yoelii [9] = assay: Antiplasmodial activity against asexual erythrocytic stage of Plasmodium yoelii infected in female CFI mouse model assessed as reduction in parasitemia at 1 mg/kg, po administered once daily for 4 days and measured on day 5 by Giemsa staining based microscopic analysis relative to control; type: functional; parameters: scale not given: the % may be the effect or the level left
[10] = Aqueous solubility of compound in PBS buffer at pH 7.4 incubated for 90 mins by UV-vis spectroscopic analysis; conditions: pH 7.4, 1.5 h
HepG2 = assay: (§1) Cytotoxicity against human HepG2 cells assessed as cell viability incubated for 72 hrs by MTT assay; type: toxicity, cell-based; conditions: hepg2
[11] = Tmax in ICR-CD1 mouse liver at 40 mg/kg, po; type: ADME, organism-based
[12] = molecular target: T1, Voltage-gated inwardly rectifying potassium channel KCNH2; assay: Inhibition of hERG expressed in CHO-K1 cells at 2.5 uM relative to control; type: toxicity, cell-based; conditions: cho-k1, 2.5 µM
in vitro = conditions: human
Description: Selectivity index, ratio of IC50 for cytotoxicity against human HepG2 cells assessed as cell viability to IC50 for antiplasmodial activity against asexual erythrocytic stage of Plasmodium falciparum D6 assessed as inhibition of parasitic growth incubated

[13] = MRTlast in ICR-CD1 mouse plasma at 40 mg/kg, po; type: ADME, organism-based
[14] = Mutagenicity in Salmonella typhimurium TA98 at 10 uM in absence of S9 fraction incubated for 5 days by AMES assay; type: toxicity; conditions: salmonella enterica subsp. enterica serovar typhimurium, s9, 120 h, time 5 day
[15] = Half life in ICR-CD1 mouse liver at 40 mg/kg, po; type: ADME, organism-based
Plasmodium berghei [16] = assay: Antimalarial activity against liver-stage Plasmodium berghei sporozoites ANKA expressing GFP infected in po dosed female Albino C57BL/6 mouse assessed as reduction in parasite load measured after 24 to 48 hrs by IVIS imaging analysis; type: functional, organism-based; conditions: dose 20-40 mg/kg, time 24-48 hrs
[17] = Cmax in ICR-CD1 mouse plasma at 40 mg/kg, po; type: ADME, organism-based
[18] = Mutagenicity in Salmonella typhimurium TA98 at 10 uM in presence of S9 fraction incubated for 5 days by AMES assay; type: toxicity, subcellular; conditions: salmonella enterica subsp. enterica serovar typhimurium, s9, 120 h, time 5 day
[19] = Mutagenicity in Salmonella typhimurium TA100 at 10 uM in absence of S9 fraction incubated for 5 days by AMES assay; type: toxicity; conditions: salmonella enterica subsp. enterica serovar typhimurium, s9, 120 h, time 5 day
[20] = molecular target: T1, Voltage-gated inwardly rectifying potassium channel KCNH2; assay: Inhibition of hERG expressed in CHO-K1 cells at 1.25 uM relative to control; type: toxicity, cell-based; conditions: cho-k1, 1.25 µM
[21] = molecular target: T1, Voltage-gated inwardly rectifying potassium channel KCNH2; assay: Inhibition of hERG expressed in CHO-K1 cells at 5 uM relative to control; type: toxicity, cell-based; conditions: cho-k1, 5 µM
[22] = Cmax in ICR-CD1 mouse liver at 40 mg/kg, po; type: ADME, organism-based
[23] = %AUCextra in ICR-CD1 mouse plasma at 40 mg/kg, po; type: ADME, organism-based; conditions: in vivo
Plasmodium berghei [24] = assay: Antimalarial activity against blood-stage Plasmodium berghei sporozoites ANKA expressing GFP infected in po dosed female Albino C57BL/6 mouse assessed as reduction in parasite load measured after 72 hrs by flow cytometry analysis; type: functional, organism-based; conditions: dose 20-40 mg/kg
[25] = molecular target: T1, Voltage-gated inwardly rectifying potassium channel KCNH2; assay: Inhibition of hERG expressed in CHO-K1 cells at 10 uM relative to control; type: toxicity, cell-based; conditions: cho-k1, 10 µM
Plasmodium yoelii [26] = assay: Antiplasmodial activity against asexual erythrocytic stage of Plasmodium yoelii infected in female CFI mouse model at 25 mg/kg, po administered once daily for 4 days and measured on day 5 by Giemsa staining based microscopic analysis; type: functional, organism-based; conditions: time 5.0 day
[27] = AUC (0 to infinity) in ICR-CD1 mouse liver at 40 mg/kg, po; type: ADME, organism-based
[28] = Tmax in ICR-CD1 mouse plasma at 40 mg/kg, po; type: ADME, organism-based
[29] = Apparent oral clearance in ICR-CD1 mouse plasma at 40 mg/kg, po; type: ADME, organism-based; conditions: in vivo
[30] = Metabolic stability in mouse liver microsomes assessed as half life measured upto 60 mins LC-MS analysis
Plasmodium yoelii [31] = assay: Antiplasmodial activity against asexual erythrocytic stage of Plasmodium yoelii infected in po dosed female CFI mouse model assessed as reduction in parasitemia administered once daily for 4 days and measured on day 5 by Giemsa staining based microscopic analysis; type: functional; conditions: 120 h, time 5 day
Plasmodium berghei [32] = assay: Antimalarial activity against liver-stage Plasmodium berghei sporozoites ANKA expressing GFP infected female Albino C57BL/6 mouse assessed as reduction in parasite growth at 40 mg/kg, po measured at 72 hrs by IVIS imaging analysis; type: functional; parameters: scale not given: the % may be the effect or the level left
[33] = Metabolic stability in human liver microsomes assessed as half life measured upto 60 mins LC-MS analysis
[34] = Metabolic stability in mouse liver microsomes assessed as intrinsic clearance measured upto 60 mins LC-MS analysis
[35] = molecular target: T1, Voltage-gated inwardly rectifying potassium channel KCNH2; assay: Inhibition of hERG expressed in CHO-K1 cells at 0.625 uM relative to control; type: toxicity, cell-based; conditions: cho-k1, 0.625 µM
Plasmodium falciparum [36] = assay: microbe, parasite or virus in culture; conditions: Dd2, 72 h
[37] = Mutagenicity in Salmonella typhimurium TA100 at 10 uM in presence of S9 fraction incubated for 5 days by AMES assay; type: toxicity, subcellular; conditions: salmonella enterica subsp. enterica serovar typhimurium, s9, 120 h, time 5 day
[38] = Half life in ICR-CD1 mouse plasma at 40 mg/kg, po; type: ADME, organism-based
[39] = MRTlast in ICR-CD1 mouse liver at 40 mg/kg, po; type: ADME, organism-based
[40] = Apparent oral clearance in ICR-CD1 mouse liver at 40 mg/kg, po; type: ADME, organism-based
Plasmodium berghei [41] = assay: Antimalarial activity against liver-stage Plasmodium berghei sporozoites ANKA expressing GFP infected female Albino C57BL/6 mouse assessed as reduction in parasite growth at 40 mg/kg, po measured at 48 hrs by IVIS imaging analysis; type: functional; parameters: scale not given: the % may be the effect or the level left
[42] = Metabolic stability in human liver microsomes assessed as intrinsic clearance measured upto 60 mins LC-MS analysis
[43] = as §1; type: toxicity, cell-based; conditions: human, HepG2 cells
Plasmodium yoelii [44] = assay: Antiplasmodial activity against asexual erythrocytic stage of Plasmodium yoelii infected in female CFI mouse model assessed as reduction in parasitemia at 3 mg/kg, po administered once daily for 4 days and measured on day 5 by Giemsa staining based microscopic analysis relative to control; type: functional; conditions: time 5.0 day
Plasmodium yoelii [45] = assay: Antiplasmodial activity against asexual erythrocytic stage of Plasmodium yoelii infected in female CFI mouse model assessed as reduction in parasitemia at 25 mg/kg, po administered once daily for 4 days and measured on day 5 by Giemsa staining based microscopic analysis relative to control; type: functional; parameters: scale not given: the % may be the effect or the level left; conditions: time 5 day

T1 sequence (Q12809 whole entry): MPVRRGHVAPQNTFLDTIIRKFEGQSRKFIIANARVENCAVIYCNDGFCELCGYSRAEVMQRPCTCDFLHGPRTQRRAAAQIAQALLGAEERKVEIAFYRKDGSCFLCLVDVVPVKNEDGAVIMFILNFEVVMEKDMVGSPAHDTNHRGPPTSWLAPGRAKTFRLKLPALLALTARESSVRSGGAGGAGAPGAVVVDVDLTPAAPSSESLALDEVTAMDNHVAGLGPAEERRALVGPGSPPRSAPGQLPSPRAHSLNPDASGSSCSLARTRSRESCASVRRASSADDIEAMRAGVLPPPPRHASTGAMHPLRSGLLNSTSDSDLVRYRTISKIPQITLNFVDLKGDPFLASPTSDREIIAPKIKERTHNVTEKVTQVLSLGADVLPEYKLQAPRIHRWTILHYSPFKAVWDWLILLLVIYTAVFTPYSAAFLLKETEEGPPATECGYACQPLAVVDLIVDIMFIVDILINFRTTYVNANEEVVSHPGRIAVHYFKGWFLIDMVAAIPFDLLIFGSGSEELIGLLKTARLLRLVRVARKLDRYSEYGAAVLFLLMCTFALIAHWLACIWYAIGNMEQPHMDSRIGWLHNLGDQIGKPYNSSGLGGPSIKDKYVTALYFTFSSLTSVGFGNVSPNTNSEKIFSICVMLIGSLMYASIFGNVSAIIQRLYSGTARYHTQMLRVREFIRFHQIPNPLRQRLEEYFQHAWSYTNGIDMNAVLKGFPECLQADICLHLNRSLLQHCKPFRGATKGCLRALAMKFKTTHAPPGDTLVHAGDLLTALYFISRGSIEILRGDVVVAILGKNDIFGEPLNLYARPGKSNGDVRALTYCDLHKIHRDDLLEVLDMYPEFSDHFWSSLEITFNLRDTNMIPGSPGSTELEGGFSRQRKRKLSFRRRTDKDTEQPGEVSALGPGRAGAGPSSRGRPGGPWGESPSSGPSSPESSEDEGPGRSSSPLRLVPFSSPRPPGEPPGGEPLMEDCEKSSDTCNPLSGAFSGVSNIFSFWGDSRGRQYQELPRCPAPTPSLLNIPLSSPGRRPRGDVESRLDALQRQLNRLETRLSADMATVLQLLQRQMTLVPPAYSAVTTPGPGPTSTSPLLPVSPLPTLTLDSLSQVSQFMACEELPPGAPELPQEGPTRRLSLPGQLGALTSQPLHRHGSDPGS

CCCCCc1cc(/C=C2\N=C(c3ccc[nH]3)C=C2Oc2ccccc2)[nH]c1C.Cl
%AUCextra [1]: 0.267% | AUC [2]: 5974 ng·h/mL | IC50 (Plasmodium falciparum [3]): 0.00708 µM | Activity (Plasmodium yoelii [4]; time 5 day): 100% | AUC(0-t) [5]: 31900 ng·h/mL | AUC(0-t) [6]: 5950 ng·h/mL | IC50 (Plasmodium falciparum [7]): 0.00874 µM | inhibition (INH) [8]: 0.24% | Activity (Plasmodium yoelii [9]; time 5 day): 54.6% | solubility [10]: < 3.125 µM | IC50 (HepG2): 6.26 µM | Tmax [11]: 24 h | inhibition (INH) [12]: 10.3% | selectivity ratio (in vitro): 884 | MRT last [13]: 28.3 h | Activity [14]: Non-toxic | half-life [15]: 5.03 h | Activity (Plasmodium berghei [16]): Dose-dependent-effect | Cmax [17]: 199 ng/mL | Activity [18]: Non-toxic | Activity [19]: Non-toxic | inhibition (INH) [20]: 9.85% | inhibition (INH) [21]: 10.3% | Cmax [22]: 1130 ng/mL | %AUCextra [23]: 0.426% | Activity (Plasmodium berghei [24]): Dose-dependent-effect | inhibition (INH) [25]: 17.5% | Activity (Plasmodium yoelii [26]): Active | AUC(0-inf) [27]: 32000 ng·h/mL | Tmax [28]: 30 h | CL/F [29]: 3.32 mL/min/kg | half-life at 1 h [30]: 0.915 h | ED50 (Plasmodium yoelii [31]; Plasmodium yoelii, po, read-out: ED50): 0.99 mg/kg/day | ED50 (Plasmodium yoelii [31]): 1.11 mg/kg/day | Activity (Plasmodium berghei [32]): 74% | half-life at 1 h [33]: > 1 h | microsomal CLint at 1 h [34]: 25.2 µL/min/mg | inhibition (INH) [35]: 7.31% | IC50 (Plasmodium falciparum [36]): 0.00387 µM | Activity [37]: Non-toxic | half-life [38]: 6.41 h | MRT last [39]: 29.1 h | CL/F [40]: 0.615 mL/min/kg | Activity (Plasmodium berghei [41]): 43% | microsomal CLint at 1 h [42]: 4.02 µL/min/mg

CCCCCCCCCCCc1ccc(/C=C2\N=C(c3ccc[nH]3)C=C2Oc2ccccc2)[nH]1.Cl
Activity (Plasmodium yoelii [4]; time 5.0 day): inactive | IC50 (Plasmodium falciparum [7]): 0.0643 µM | Activity (Plasmodium yoelii [9]; time 5.0 day): inactive | solubility [10]: 8.19 µM | IC50 at 72 h [43]: > 200 µM | selectivity ratio (in vitro): > 2440 | Activity (Plasmodium yoelii [26]): inactive | half-life at 1 h [30]: 0.27 h | half-life at 1 h [33]: 0.987 h | Activity (Plasmodium yoelii [44]): inactive | microsomal CLint at 1 h [34]: 85.7 µL/min/mg | IC50 (Plasmodium falciparum [36]): 0.0809 µM | Activity (Plasmodium yoelii [45]): 100% | microsomal CLint at 1 h [42]: 23.4 µL/min/mg
